Experimental data: patent US20240337647A1, “IMPROVED METHODS FOR IDENTIFICATION OF FUNCTIONAL CELL STATES” (priority 2021, published 2024)
Read-outs that look alike come from different tables or passages of the source.

Columns and labels:
31 biomolecular targets = test: In vitro pharmacology panel of 31 biomolecular targets, dose-response; assay type: biochemical; conditions: for IC50: read-out: Avg potency
Procedure: (§1) For a detailed description of our collaborators' in vitro pharmacology assay panels, please see the publication by Pottel et al. (Pottel et al., 2020). Briefly, each in vitro assay focuses on one biomolecular target known to be associated with common negative side effects of pharmaceuticals in humans. These targets are generally enzymes, cell surface receptors, or other proteins that mediate cell signal transduction. In one assay panel, chemical compound interaction is assessed for 31 biomolecular targets in a dose-response fashion, which assesses compound-target interaction strength expressed as an IC50 and an activity range (unless no interaction happens).
These last two features are derived from the first panel of 31 biomolecular targets, which are assayed using a concentration series of each excipient to produce a dose-response curve.

[1] = tested on: biomolecular targets known to be associated with common negative side effects of pharmaceuticals in humans; test: In vitro secondary pharmacology panels, all targets of the two panels (31 dose-response + 78 single concentration); assay type: biochemical; conditions: percentage of targets hit among all targets tested in the two secondary pharmacology panels
Procedure: The purpose of this study was to assess the toxicity risk estimation provided by the Cell Health Screen relative to information from panels of in vitro pharmacology assays that were also designed to detect toxicity risk during pharmaceutical development. This study was performed with outside collaborators who have expertise in the use of the in vitro pharmacology assays. These in vitro assay panels detect whether chemical compounds directly interact with biomolecular targets known to be associated with toxic side effects in humans (mostly enzymes, cell surface receptors, and other proteins that participate in signaling pathways) (Pottel et al., 2020). […] As such, the interpretation process is somewhat subjective. In contrast, the Cell Health Screen uses a feature extraction and ML classifier strategy described above, to reduce all cellular phenotypic changes caused by a chemical compound to a single probability value, from 0 to 1. This is a quantitative toxicity risk estimation relative to a training set of compounds used to train the ML classifier. Therefore, comparing results from the Cell Health Screen to the in vitro pharmacology panels is a matter of comparing the trend in ML classifier probability values, across all 40 excipients, with their relative degrees of promiscuity and target interaction potency observed in the in vitro pharmacology panels.
as §1
Here we present two summarized versions of the study results. […] For the biological endpoints, the abbreviation key is as follows: CM=cell morphology, CMI=cell membrane integrity, ROS=reactive oxygen species, GTH=glutathione, NMI1=nuclear membrane integrity 1, CC=cell cycle, NMI2=nuclear membrane integrity 2, MMP=mitochondrial membrane potential. […] This is the percentage of all biomolecular targets for which an effect was observed, for each excipient. The THR value serves as an expression of an excipient's promiscuity with regard to binding biomolecular targets known to associate with toxic side effects in humans.

HL60 cells = test: AsedaSciences SYSTEMETRIC Cell Health Screen (multiparametric acute cell stress assay, flow cytometry, ML classifier); conditions: probability (0 to 1) of assignment to the 'yes' high cell stress class; HL60, 4 hours, 5 nM-100 μM
Description: The Cell Health Screen is a multiparametric acute cell stress assay, using a panel of fluorescent physiological reporting dyes, on an automated flow cytometry platform. Rather than simply producing dose-response curves for all individual biological readouts, features are generated by computing custom-defined distance functions between test and control wells. All test compounds are represented as feature vectors, after which the analysis algorithm employs a logistic regression model to classify test compounds relative to a training set. This machine learning (ML) approach integrates all measured readouts into a single predictive statistical model. […] This training set empirically covers the full range of possible phenotypes in the Cell Health Screen, from no-response to acute stress, with sufficient representation across the spectrum. Training set compounds were assigned to binary classes (“yes”=expectation of high cell stress or “positive” phenotype; “no”=no expectation of positive phenotype). This externally established ground-truth was based upon manually curated information from research literature and, where applicable, clinical trial results and commercial/regulatory histories.
For an unknown test compound, the ML classifier uses all the FC parameter features describing compound response, simultaneously, to predict the final assignment. This is achieved by calculating the probability of assigning that compound's screen phenotype to the “yes” class defined by the training set. By specifying the problem as a classification challenge, the data analysis pipeline assures that any apparent lack of coordinated change among biological readouts presents no interpretation challenge. All phenotypic data are treated simply as input features to a statistical model. In contrast, many conventional flow cytometry assays require strict mechanistic interpretation of every measured biological readout. often resulting in conflicting conclusions (e.g. if reactive oxygen species increase, but glutathione is unaffected, which should be “believed”?). The final probability score, or Cell Health Index, is a quantitative assessment of a multiparametric phenotype's similarity to a diverse set of known good and bad actors. Finally, choosing HL60 as our reporter cell line means that the screen is explicitly designed not to detect instances in which a parent compound only causes cellular toxicity via metabolites.
In a 384-well platform. HL60 cells are exposed to a 10-step, 3× dilution series of each test compound (5 nM-100 μM) for 4 hours at 37° C. with 5% CO2. Each dilution series is screened in duplicate, occupying a total of 20 wells, allowing 16 test compounds to be assayed on each plate. Each row contains one positive and one negative control well, for a total of 16 matched control pairs on each assay plate. Compound formatting, cell deposition, and dye application are performed robotically, so that final assay conditions comprise 100,000 cells in a 40 μl volume. After compound exposure, live cells are rapidly stained with a panel of fluorescent dyes that report physiological signatures of both mitochondrial dysfunction and gross cell stress. Fluorescence data are collected using automated flow cytometry with no gating. […] Well-specific flow cytometry data files, with an accompanying map of well contents, are moved to cloud infrastructure where the automated algorithm for quality control and ML classification is triggered. […]

[2] = average concentration of the IC50 values from dose-response results, panel of 31 targets
[3] = first panel of 31 biomolecular targets, concentration series

Compound | IC50 (31 biomolecular targets; [2]) [µM] | Activity range (31 biomolecular targets; [3]) [µM] | Overall target hit rate [1] [%] | Activity range (31 biomolecular targets) [µM] | IC50 (31 biomolecular targets) [µM] | CHI score (Cell Health Index) (HL60 cells)
CC(=O)[O-].[Hg+][c]1ccccc1 [Phenylmercuric acetate] |  |  | 58 | 0.02 to 22 | 5 | 0.955
CC(C)(C)CC(C)(C)c1ccc(OCCOCC[N+](C)(C)Cc2ccccc2)cc1 [Benzethonium chloride] |  |  | 51 |  |  | 
O=C([O-])c1c(Cl)c(Cl)c(Cl)c(Cl)c1-c1c2cc(Br)c(=O)c(Br)c-2oc2c(Br)c([O-])c(Br)cc12.[Na+].[Na+] [D&C Red #28, Phloxine B] |  | 0.13 to 28 | 55 |  | 10 | 0.637
C[CH2][Hg][S]c1ccccc1C(=O)[O-].[Na+] [Thimerosal] |  |  | 17 | 0.32 to 30 | 15 | 0.936
Polysorbate 80 |  | 1.0 to 21 | 13 |  | 10.7 | 0.422

The next lines start with results.

IC50 (31 biomolecular targets; [2]) [µM] | Compound | Activity range (31 biomolecular targets; [3]) [µM] | Overall target hit rate [1] [%] | Activity range (31 biomolecular targets) [µM] | IC50 (31 biomolecular targets) [µM] | CHI score (Cell Health Index) (HL60 cells)
5.7 | O=C1OC2(c3ccccc31)c1cc(I)c(O)c(I)c1Oc1c2cc(I)c(O)c1I [FD&C Red #3, Erythrosine extra bluish] | 0.09 to 25 | 48 |  |  | 
7.2 | CCCOC(=O)c1cc(O)c(O)c(O)c1 [Propyl gallate] | 0.015 to 7.2 | 3 |  |  | 
12 | Cc1cc(O)cc(C)c1Cl [Chloroxylenol, 4-chloro-3,5-dimethylphenol] | 10 to 14 | 6 |  |  | 0.349
6.5 | CN(C)c1ccc2nc3ccc(=[N+](C)C)cc-3sc2c1 [Methylene blue hydrate] | 0.04 to 24 | 48 |  |  | 
19.3 | CCCOC(=O)c1ccc(O)cc1 [Propylparaben] | 11 to 24 | 3 |  |  | 
